Patent US12162867B2, “Inhibitors of RNA helicase DHX9 and uses thereof” (ACCENT THERAPEUTICS, INC., priority 2022, dated 2024)
Like-named read-outs stand apart in the source and are kept apart here.

System: circBRIP1 in HCT116 cells
Assay: DHX9 circBRIP1 cellular target engagement SYBR Green assay (qPCR)
Assay type: cell-based
Details: Homo sapiens, HCT-116, circBRIP1, HCT116 cells, read-out: DHX9 Cellular Target Engagement EC50

| EC50 (SyBr assay (marked ^+)) | EC50 (^+ SyBr assay was used) | Compound |
| --- | --- | --- |
| 6550 nM |  | CS(=O)(=O)Nc1cc(Cl)cc(NC(=O)c2cc3ncccc3s2)c1 [Example 289] |
| 3610 nM |  | Cn1cc(C(=O)Nc2cc(Cl)cc(NS(C)(=O)=O)c2)nc1-c1ccccc1 [Example 155, N-(3-chloro-5-(methylsulfonamido)phenyl)-1-methyl-2-phenyl-1H-imidazole-4-carboxamide] |
| 2680 nM |  | CS(=O)(=O)Nc1cc(Cl)cc(NC(=O)c2cnn(-c3ncc(N4CCOCC4)cc3OCc3cccnc3)c2)c1 [Example 194] |
| > 10000 nM |  | Cc1cccnc1-c1nc(C(=O)Nc2cc(Cl)cc(NS(C)(=O)=O)c2)cn1C [Example 156] |
| 1480 nM |  | CS(=O)(=O)Nc1cc(F)cc(NC(=O)c2cc(-c3ccccc3O)cs2)c1 [Example 114] |
| 457 nM |  | CS(=O)(=O)Nc1cc(Br)cc(NC(=O)c2cc(-c3cccnc3)cs2)c1 [Example 78] |
| 557 nM |  | CS(=O)(=O)Nc1cc(Cl)cc(NC(=O)c2cc(-c3ncccc3CC(=O)N3CCCC3)cs2)c1 [Example 383] |
| > 10000 nM |  | Cn1nc(C(=O)Nc2cc(Cl)cc(NS(C)(=O)=O)c2)cc1-c1ccccn1 [Example 140] |
| 1390 nM |  | CSc1ccc(-n2cc(C(=O)Nc3cc(Cl)cc(NS(C)(=O)=O)c3)cn2)nc1 [Example 218] |
| 1410 nM |  | CS(=O)(=O)Nc1cc(Br)cc(NC(=O)c2cnn(C3CCCCC3)c2)c1 [Example 48] |
| 2460 nM |  | CC(=O)N1CCN(c2cnc(-n3cc(C(=O)Nc4cc(Br)cc(NS(C)(=O)=O)c4)cn3)c(C)c2)CC1 [Example 87] |
| > 10000 nM |  | CS(=O)(=O)Nc1cc(Cl)cc(NC(=O)c2cnn(-c3ccc(S(C)(=O)=O)cn3)c2)c1 [Example 198] |
| > 10000 nM |  | CS(=O)(=O)Nc1cc(Cl)cc(NC(=O)c2cnn(C3CC4(CC(N)C4)C3)c2)c1 (stereo not shown) [Example 319] |
| 4310 nM |  | CS(=O)(=O)Nc1cc(Cl)cc(NC(=O)c2cc(N3CCOCC3)cs2)c1 [Example 245] |
| 4950 nM |  | Cc1ccc(C#N)cc1-n1cc(C(=O)Nc2cc(Br)cc(NS(C)(=O)=O)c2)cn1 [Example 53] |
| > 10000 nM |  | CS(=O)(=O)Nc1cc(Cl)cc(NC(=O)c2cc(C3CCNCC3)cs2)c1 [Example 243] |
|  | 193 nM | Cc1cc(C(=O)Nc2cc(Cl)cc(NS(C)(=O)=O)c2)cn1-c1ccc(C#N)cn1 [Example 425] |
| 31.1 nM |  | Cc1cc(C(=O)Nc2cc(Cl)cc(NS(C)(=O)=O)c2)cn1-c1ccc(N2CCOC(C)(C)C2)cn1 [Example 272] |
| 997 nM |  | CS(=O)(=O)Nc1cc(Cl)cc(NC(=O)c2cnn(-c3ncccc3OCc3cccc(O)c3)c2)c1 [Example 179] |
| > 10000 nM |  | CS(=O)(=O)Nc1cc(Cl)cc(NC(=O)c2cc3cc(F)ccc3s2)c1 [Example 295] |
| 421 nM |  | CS(=O)(=O)Nc1cc(Cl)cc(NC(=O)c2cc(-c3ncccc3C(F)(F)F)cs2)c1 [Example 223] |
| 37.5 nM |  | Cn1cc(C(=O)Nc2cc(Cl)cc(NS(C)(=O)=O)c2)cc1-c1ccc(N2CCOCC2)cn1 [Example 273] |
| > 10000 nM |  | CN1CCN(c2cnc(-n3cc(C(=O)Nc4cc(Cl)cc(NS(C)(=O)=O)c4)cn3)nc2)CC1=O [Example 183] |
| 1140 nM |  | CS(=O)(=O)Nc1cc(Cl)cc(NC(=O)c2cc3c(F)cccc3s2)c1 [Example 296] |

| EC50 (SyBr assay (marked ^+)) | EC50 (^+ SyBr assay was used) | Compound |
| --- | --- | --- |
| 6650 nM |  | CS(=O)(=O)Nc1cc(Cl)cc(NC(=O)c2cc(-c3cccc(F)c3)cs2)c1 [Example 108] |
|  | > 10000 nM | CN(C)C(=O)c1cccc(OCc2cccc(F)c2)c1-n1cc(C(=O)Nc2cc(Cl)cc(NS(C)(=O)=O)c2)cn1 [Example 717] |
| 265 nM |  | CSc1cccnc1-n1cc(C(=O)Nc2cc(Cl)cc(NS(C)(=O)=O)c2)cn1 [Example 219] |
| 1290 nM |  | Cc1cccnc1-c1csc(C(=O)Nc2cc(Br)cc(NS(C)(=N)=O)c2)c1 (stereo not shown) [Example 122] |
| 6590 nM |  | Cc1sc(C(=O)Nc2cc(Br)cc(NS(C)(=N)=O)c2)cc1-c1ccccn1 (stereo not shown) [Example 123] |
| 2300 nM |  | CS(=O)(=O)Nc1cc(Cl)cc(NC(=O)c2cc3cccnn3c2)c1 [Example 292] |
| > 10000 nM |  | CS(=O)(=O)Nc1cc(Cl)cc(NC(=O)c2cnn([C@@H]3CC[C@H]3O)c2)c1 (single isomer, unassigned) [Example 306a] |
|  | 1410 nM | CS(=O)(=O)Nc1cc(Cl)cc(NC(=O)c2cc(N3CCOC3=O)cs2)c1 [Example 433] |
| 8330 nM |  | CS(=O)(=O)Nc1cc(F)cc(NC(=O)c2cc(-c3cccnc3)cs2)c1 [Example 105, N-(3-fluoro-5-(methylsulfonamido)phenyl)-4-(pyridin-3-yl)thiophene-2-carboxamide] |
| 5520 nM |  | CS(=O)(=O)Nc1cc(Cl)cc(NC(=O)c2cc(-c3ccccc3)c[nH]2)c1 [Example 8] |
| 1790 nM |  | CS(=O)(=O)Nc1cc(Cl)cc(NC(=O)c2cnn(-c3ncccc3OCc3ncc[nH]3)c2)c1 [Example 252] |
| 3980 nM |  | CN1CC2(CC(n3cc(C(=O)Nc4cc(Cl)cc(NS(C)(=O)=O)c4)cn3)C2)C1 [Example 311] |
| 3550 nM |  | CS(=O)(=O)Nc1cc(Cl)cc(NC(=O)c2cnn(C3CC4CCC(C3)O4)c2)c1 (stereo not shown) [Example 250] |
| 3460 nM |  | CS(=O)(=O)Nc1cc(Cl)cc(NC(=O)c2cc3ccccn3c2)c1 [Example 209] |
| > 30000 nM |  | Cc1cc(C(=O)Nc2cc(F)cc(NS(C)(=O)=O)c2)c[nH]1 [Example 5] |
| > 10000 nM |  | CC(c1ccccc1)n1cc(C(=O)Nc2cc(Cl)cc(NS(C)(=O)=O)c2)cn1 (stereo not shown) [Example 142, N-(3-chloro-5-(methylsulfonamido)phenyl)-1-(1-phenylethyl)-1H-pyrazole-4-carboxamide] |
| 414 nM |  | CS(=O)(=O)Nc1cc(Cl)cc(NC(=O)c2cc(-c3ccccc3O)cs2)c1 [Example 106] |
|  | 1050 nM | CS(=O)(=O)Nc1cc(Cl)cc(NC(=O)c2cc(C3CC3)n(-c3ncc(F)cn3)c2)c1 [Example 451] |
| 5140 nM |  | CS(=O)(=O)Nc1cc(Cl)cc(NC(=O)c2csc(-c3ccccc3)c2)c1 [Example 124, N-(3-chloro-5-(methylsulfonamido)phenyl)-5-phenylthiophene-3-carboxamide] |
| > 10000 nM |  | CS(=O)(=O)Nc1cc(Cl)cc(NC(=O)c2cnn([C@H]3CC[C@@H](O)CC3)c2)c1 [Example 151, N-(3-chloro-5-(methylsulfonamido)phenyl)-1-((1s,4s)-4-hydroxycyclohexyl)-1H-pyrazole-4-carboxamide] |
| 1800 nM |  | CC(C)C(=O)N1CCN(c2ccc(-n3cc(C(=O)Nc4cc(Cl)cc(NS(C)(=O)=O)c4)cn3)nc2)CC1 [Example 149, N-(3-chloro-5-(methylsulfonamido)phenyl)-1-(5-(4-isobutyrylpiperazin-1-yl)pyridin-2-yl)-1H-pyrazole-4-carboxamide] |
|  | 2280 nM | CS(=O)(=O)Nc1cc(Cl)cc(NC(=O)c2cnn(-c3ncc(F)cc3OCc3cnco3)c2)c1 [Example 719] |
| > 30000 nM |  | CS(=O)(=O)Nc1cc(F)cc(NC(=O)c2c[nH]c(Br)c2)c1 [Example 2] |
|  | 2800 nM | CS(=O)(=O)Nc1cc(Cl)cc(NC(=O)c2cnn(-c3ncccc3-c3cncc(F)c3)c2)c1 [Example 392] |

| EC50 (SyBr assay (marked ^+)) | EC50 (^+ SyBr assay was used) | Compound |
| --- | --- | --- |
|  | 340 nM | CS(=O)(=O)Nc1cc(Cl)cc(NC(=O)c2cc(-c3ccc(F)cn3)n(CCO)c2)c1 [Example 689] |
| 1530 nM |  | Cc1cnc(-n2cc(C(=O)Nc3cc(Cl)cc(NS(C)(=O)=O)c3)cn2)c(OCc2cnco2)c1 [Example 261] |
| 8320 nM |  | CCS(=O)(=O)Nc1cc(F)cc(NC(=O)c2cc(-c3ccccc3)cs2)c1 [Example 74] |
| 6110 nM |  | CS(=O)(=O)Nc1cc(Cl)cc(NC(=O)c2cnn([C@@H]3CCCC[C@@H]3O)c2)c1 (relative stereo) [Example 153, N-(3-chloro-5-(methylsulfonamido)phenyl)-1-(2-cis-hydroxycyclohexyl)-1H-pyrazole-4-carboxamide] |
| 2710 nM |  | CCS(=O)(=O)Nc1cc(Cl)cc(NC(=O)c2cc(-c3cccnc3)cs2)c1 [Example 110] |
| 503 nM |  | Cc1cc(C(=O)Nc2cc(Cl)cc(NS(C)(=O)=O)c2)cn1-c1ccc(N2CCS(=O)(=O)CC2)cn1 [Example 285] |
| > 10000 nM |  | CS(=O)(=O)Nc1cc(Cl)cc(NC(=O)c2cnn([C@H]3CCC[C@H](O)C3)c2)c1 (single isomer, unassigned) [Example 152a] |
| 5900 nM |  | CS(=O)(=O)Nc1cc(Cl)cc(NC(=O)c2cc3c(F)c(F)ccc3s2)c1 [Example 324] |
|  | 4520 nM | Cn1cc(C(=O)Nc2cc(Cl)cc(NS(C)(=O)=O)c2)cc1-c1ncccc1Oc1cccnc1 [Example 655] |
|  | > 10000 nM | CS(=O)(=O)Nc1cc(Cl)cc(NC(=O)c2cc(C(=O)N3CCOCC3)n(-c3ccccn3)c2)c1 [Example 731] |
|  | 215 nM | Cn1cc(C(=O)Nc2cc(Cl)cc(NS(C)(=O)=O)c2)cc1-c1ccc(F)cn1 [Example 575] |
| 6530 nM |  | CS(=O)(=O)Nc1cc(Cl)cc(NC(=O)c2cnn(-c3cnc(N4CCOCC4)cn3)c2)c1 [Example 388] |
| 933 nM |  | CS(=O)(=O)Nc1cc(Br)cc(NC(=O)c2cnn(-c3cc(C#N)ccn3)c2)c1 [Example 38] |
| 1180 nM |  | COCc1sc(C(=O)Nc2cc(Cl)cc(NS(C)(=O)=O)c2)cc1-c1ccccn1 [Example 234] |
| 1150 nM |  | CS(=O)(=O)Nc1cc(Br)cc(NC(=O)c2cnn(-c3cnccn3)c2)c1 [Example 40] |
| 37 nM |  | Cc1cc(C(=O)Nc2cc(Cl)cc(NS(C)(=O)=O)c2)cn1-c1ccc(N(C)C2CCOC2)cn1 (stereo not shown) [Example 269] |
| 291 nM |  | CS(=O)(=O)Nc1cc(Cl)cc(NC(=O)c2cnn(-c3ncc(N4CC5(COC5)C4)cc3OCc3cc(F)cc(F)c3)c2)c1 [Example 258] |
|  | 817 nM | Cc1cc(C(=O)Nc2cc(Cl)cc(NS(C)(=O)=O)c2)cn1-c1ncc([S+](C)[O-])cn1 (stereo not shown) [Example 657] |
| 1200 nM |  | CS(=O)(=O)Nc1cc(Cl)cc(NC(=O)c2cnn(-c3ccc(N4CCOCC4=O)cn3)c2)c1 [Example 180] |
| 289 nM |  | CN(c1ncccn1)c1cccnc1-c1csc(C(=O)Nc2cc(Cl)cc(NS(C)(=O)=O)c2)c1 [Example 238] |
| 3340 nM |  | CS(=O)(=O)Nc1cc(Cl)cc(NC(=O)c2cc3c(Cl)cccc3s2)c1 [Example 332] |
| 2250 nM |  | CS(=O)(=O)Nc1cc(Cl)cc(NC(=O)c2cnn(-c3ncccc3C#N)c2)c1 [Example 46] |
